# From patent US5104814A, “Assay kit and methods for neuroleptic drugs” (Schering Corporation, priority 1990, dated 1992)
# How the values were obtained:
# D-1 receptor [1] = molecular target: T1, D-1 receptor (Rattus norvegicus, UniProt P18901); assay: Saturation binding of [N-methyl-^3 H] Compound in rat striatum; details: binding as a function of radioligand concentration, 25 min
# T1 construct: Striatal tissue was excised, pooled, and homogenized; from tissue; host or cells: striatum of male Sprague-Dawley rats, homogenized and washed by centrifugation
# Description: (§1) Male Sprague-Dawley rats (200 to 250 g) from Charles River Breeding Laboratories, Mass. were used to obtain brain tissue. The rats were decapitated, their brains removed and placed on ice. Striatal tissue was excised, pooled, and homogenized (Brinkman Polytron, 10 sec) in 100 volumes (v/v) of ice cold 50mM Tris-HCl buffer, pH 7.4 (at 25° C.). The homogenate was centrifuged at 20,000×g for 10 min. The resultant pellet was rehomogenized in Tris-HCl buffer and centrifuged again. The final pellet was resuspended in 50 mM Tris-HCl buffer pH 7.4 containing 120 mM NaCl, 5 mM KCL, 2 mM CaCl2, and 1 mM MgCl2.
# rat striatal membranes = assay: In vivo labeling of rat striatal membranes by [N-methyl-^3 H] Compound after subcutaneous injection
# [2] = Recovery of radioactivity from polypropylene assay tubes (adsorption onto surfaces); format: physicochemical; details: polypropylene tubes used in these experiments
# D-1 receptor [3] = molecular target: T1, D-1 receptor; assay: Competition binding with [N-methyl-^3 H] Compound as radioligand in rat striatal tissue; details: rat striatum, radioligand 1.0 nM; read-out: KI, inhibition of binding of the labelled Compound
# Description: as §1
# To test the receptor specificity of [N-methyl-^3 H]
# dopamine D-1 receptors = details: J. Pharmacol. Exp. Ther., 226: 462 (1983); cited from earlier work
# T1 sequence (P18901 whole entry): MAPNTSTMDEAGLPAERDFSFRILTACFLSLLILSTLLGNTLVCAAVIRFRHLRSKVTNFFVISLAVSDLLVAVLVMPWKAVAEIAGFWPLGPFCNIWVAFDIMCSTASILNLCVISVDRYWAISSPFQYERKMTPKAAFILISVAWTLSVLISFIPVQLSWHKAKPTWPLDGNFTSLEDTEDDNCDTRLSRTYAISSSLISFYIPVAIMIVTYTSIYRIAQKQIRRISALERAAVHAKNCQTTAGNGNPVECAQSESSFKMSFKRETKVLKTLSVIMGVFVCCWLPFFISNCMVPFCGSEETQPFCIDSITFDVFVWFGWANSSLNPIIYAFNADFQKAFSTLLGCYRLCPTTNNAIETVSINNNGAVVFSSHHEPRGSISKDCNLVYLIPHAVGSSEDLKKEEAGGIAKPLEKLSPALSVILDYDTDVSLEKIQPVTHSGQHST
smiles,measurement,setting,value
[3H]C([3H])([3H])N1CCc2cc(Cl)c(O)cc2C2c3ccccc3CCC21 (stereo not drawn) [[N-methyl-^3 H] Compound],KD (disassociation constant),D-1 receptor [1],1.7 nM
same,time of optimal binding after subcutaneous injection,"rat striatal membranes; subcutaneous, striatal membranes",1 h
same,recoverable radioactivity from the polypropylene tubes,[2],97%
"CN1CCc2cc(Cl)c(O)cc2[C@H]2c3ccccc3CC[C@@H]21 [Compound, [-]trans 6,7,7a,8,9,13b-hexahydro-3-chloro-2-hydroxy-N-methyl-5H-benzo[d]naphtho[2,1-b]-azepine]",Ki,D-1 receptor [3],3.6 nM
"CN1CCc2cc(Cl)c(O)cc2[C@@H](c2ccccc2)C1 [R-(+)-8-chloro-2,3,4,5-tetrahydro-3-methyl-5-phenyl-1H-3-benzazepine-7-ol, reference compound]",inhibition of striatal binding of [N-methyl-^3 H] Compound in vivo,rat striatal membranes; 1 umole of inhibitor,90%
same,selectivity for dopamine D-1 receptors over D-2 receptors,dopamine D-1 receptors,2500 fold
